Legend:
[1] = system: monocrotaline-induced pulmonary hypertension model rats (MCT-PAH); assay: Monocrotaline-induced pulmonary hypertension model rats, oral (gavage) treatment for 21 days; format: in vivo, SD rats; details: 1 mg/kg
Source text: Monocrotaline (MCT) was subcutaneously injected to establish an animal model of pulmonary hypertension in SD rats. At the same time, compound 1 was given by gavage for treatment. The pulmonary artery hemodynamics and right heart hypertrophy index RVHI of the rates were detected to determine whether the oral administration of compound 1 has effects of improving Monocrotaline induces pulmonary hypertension.
(§1) SD rats (purchased from Shanghai Xipuer-Bikai Experimental Animal Co., Ltd.), male, weighing 180-200 g, were bred in an artificially controlled animal room with each 12 hours of light and darkness at a temperature of 20-25° C. and relative humidity of 50-60%, and allowed ad libitum to food and water. The rats were randomly divided into groups according to the experimental requirements, and kept separately in cages, with 3 to 4 rats per cage. All relevant operations of animal experiments are in compliance with the provisions of “Guidelines for the Management and Use of Laboratory Animals” of China.
During the experiment, SD rats were randomly divided into 4 groups: blank control group, pulmonary hypertension model group, Selexipag (1 mg/kg) treatment group and compound 1 (100 mg/kg) group with 6 rats in each group, and the concentration in brackets represents the administration concentration of the compound, in which Selexipag is a new oral long-acting prostacyclin receptor agonist discovered and synthesized by Japan New Drug Co., Ltd. On the first day of the experiment, normal saline was injected subcutaneously into the back of neck of rats in the blank control group, and monocrotaline (Chengdu Purifa Biotechnology Co., Ltd.) solution was injected in the rats in other groups at a dosage of 60 mg/kg. Both the positive drug, Selexipag and Compound 1 were administered by gavage. Selexipag and […] were dissolved in 0.5% CMC-Na solution. The rats were continuously administered for 21 days with a volume of […]. The rats in the control and model groups were given the corresponding volume of CMC-Na solution by gavage. Specific groupings can be found in Table 7.
After the administration, the pulmonary vascular hemodynamics and RVHI was determined according to the same experiment method as that in Example 1.

[2] = system: hypoxic pulmonary hypertension model rats; assay: Hypoxic pulmonary hypertension model rats, oral (gavage) treatment for 28 days; format: in vivo, SD rats; details: hypoxic PAH rats, 25 mg/kg
Procedure: An animal model of pulmonary hypertension in SD rats was established in a hypoxic and low-pressure environment, and compound 1 was administered by gavage at the same time for treatment. The rat pulmonary artery hemodynamics and right heart hypertrophy index RVHI were measured to determine whether compound 1 has effects of improving hypoxic pulmonary hypertension.
as §1
The hypoxic PAH model was established by placing SD male rats in a fully-automatically regulated low-pressure hypoxic chamber (atmospheric pressure of about 50 kPa, oxygen concentration of 10%) for 8 hours a day for 28 days. The rats in the blank control group were kept in a normoxic environment.
The experimental rats of hypoxic PAH model were divided into 8 groups, namely blank control group, model group, Sidenafil (25 mg/kg) group, compound 1 (10 mg/kg) group, compound 1 (25 mg/kg) group, compound 1 (50 mg/kg) group, compound 1 (100 mg/kg) group, and compound 1 (200 mg/kg) group. The concentration in the parentheses of the group name represents the administration concentration of the compound or drug. In hypoxia-induced PAH experiments, Sidenafil is often used as a positive drug, which can reduce the pulmonary artery pressure in rats and reduce the right ventricular hypertrophy and vascular remodeling. In this experiment, 25 mg/kg of Sidenafil was used as the positive drug. Both the positive drugs Sidenafil and Compound 1 were dissolved in physiological saline and formulated into solutions of different concentrations according to different administration concentrations. The rats were continuously administered for 28 days with an administration volume of 5 ml/kg. Rats in the control and model groups were given the corresponding volume of physiological saline solution via gavage. The specific grouping can be found in Table 5.
After the administration was completed, the POWERLAB biological information acquisition and treatment system was started, and the right cardiac catheter filled with 0.2% heparin sodium (Beijing Solo Technology Co. Ltd.) in normal saline was connected to the pressure transducer and then zero-calibrationed for use. After 20% urethane (Shanghai Yuanye Biotechnology Co., Ltd.) solution was injected into the abdominal cavity of the rats for anesthesia, the right neck hair was shaved and the right jugular vein was isolated and exposed. […] After the typical right ventricular waveform appeared and stabilized for a while, the waveform was recorded, and then the pressure value was read by Powerlab biological information acquisition and processing system (ADInstruments).
After the pressure was measured, the catheter was taken out, and the rat was dissected immediately to take out the heart and lung tissues. The right ventricle (RV) and the left ventricle and interventricular septum (LV+S) were separated and weighed, and the right heart hypertrophy index RVHI=RV/(LV+S) was calculated. The lung lobe tissue from the right lower part of the lung was separated, soaked in 4% paraformaldehyde (Sigma) for about 1 week to prepare a paraffin section with a thickness of 3 μm, and then conducted to hematoxylin-eosin staining (Wuhan Guge Biotechnology Co., Ltd.). […]

[3] = system: spontaneously hypertensive rats (SHR); assay: Antihypertensive activity test: blood pressure and heart rate of spontaneously hypertensive rats (SHR); format: in vivo, rat; details: 200 mg/kg; for SHR heart rate, time after administration 0 h / SHR heart rate, time after administration 1 h / SHR heart rate, time after administration 2 h / SHR heart rate, time after administration 3 h / SHR heart rate, time after administration 4 h / SHR heart rate, time after administration 5 h / SHR heart rate, time after administration 6 h: N = 8; for SHR blood pressure (SBP), time after administration 1 h / SHR blood pressure (SBP), time after administration 2 h / SHR blood pressure (SBP), time after administration 3 h / SHR blood pressure (SBP), time after administration 4 h / SHR blood pressure (SBP), time after administration 5 h / SHR blood pressure (SBP), time after administration 6 h / Blood pressure (SBP, mmHg) After administration / Heart rate (beat/min) After administration / Blood pressure (SBP, mmHg) Baseline / Heart rate (beat/min) Baseline: n = 8; for Blood pressure (SBP, mmHg) After administration / Heart rate (beat/min) After administration: after administration (6 h M ± SD); for Heart rate Difference (beat/min): after administration minus baseline (6 h); for Blood pressure Difference mmHg: baseline minus after administration (6 h); for Blood pressure (SBP, mmHg) Baseline / Heart rate (beat/min) Baseline: before administration, M ± SD
Procedure: Tested Drugs: Compounds of the Invention. The dosage of all compound was uniformly set to 200 mg/kg.
In the test, changes in the blood pressure before and after the administration were detected, and compared with the basic value, a reduction of SBP ≥20 mmHg after administration was judged as effective antihypertensive effects; and at the same time, changes in the heart rate before and after the administration were detected.
Heart rate was expressed as mean±standard deviation (x±s). The changes of heart rate before and after the administration were compared by using Two-sample equal variance paired t test, and P<0.05 was regarded as the standard of statistically significant difference.

Structure (SMILES): CC(C)N(CCCCOCC(=O)NS(C)(=O)=O)c1cnc(-c2ccccc2)c(-c2ccccc2)n1 [selexipag, reference compound]
- pulmonary arteriole hypertrophy vs. Model [1]: significantly reduced
- 2 × MT/ED ([1]; twice a day): 0.30 ± 0.086
- RVHI ([1]; twice a day): 0.27±0.026
- RVSP ([1]; twice a day): 35.67 ± 2.89 mmHg
- mPAP ([1]; twice a day): 8.78 ± 1.98 mmHg

Structure (SMILES): CCCc1nn(C)c2c(=O)[nH]c(-c3cc(S(=O)(=O)N4CCN(C)CC4)ccc3OCC)nc12 [Sildenafil, reference compound]
- value of RV/(LV+S), remodeling of the right ventricle ([2]; gavage): effectively reduce
- 2 × MT/ED ([2]; po): 0.238 ± 0.018
- RVHI ([2]; po): 0.240 ± 0.028
- RVSP ([2]; po): 50.12 ± 2.96 mmHg
- mPAP ([2]; po): 14.34 ± 2.48 mmHg

Structure (SMILES): Cc1ccc(C(O)CO)cc1 (stereo not drawn) [Compound 12]
- SHR heart rate, time after administration 0 h [3]: 333 ± 44.0 beat/min
- Heart rate Difference before and after administration, 1 h [3]: −5 beat/min
- SBP Difference before and after administration, 1 h [3]: 3 mmHg
- SHR heart rate, time after administration 1 h [3]: 328 ± 47.6 beat/min
- SHR blood pressure (SBP), time after administration 1 h [3]: 184 ± 10.6 mmHg
- Heart rate Difference before and after administration, 2 h [3]: 8 beat/min
- SBP Difference before and after administration, 2 h [3]: 5 mmHg
- SHR heart rate, time after administration 2 h [3]: 342 ± 46.9 beat/min
- SHR blood pressure (SBP), time after administration 2 h [3]: 182 ± 10.4 mmHg
- Heart rate Difference before and after administration, 3 h [3]: 15 beat/min
- SBP Difference before and after administration, 3 h [3]: 4 mmHg
- SHR heart rate, time after administration 3 h [3]: 348 ± 53.2 beat/min
- SHR blood pressure (SBP), time after administration 3 h [3]: 183 ± 9.90 mmHg
- Heart rate Difference before and after administration, 4 h [3]: 3 beat/min
- SBP Difference before and after administration, 4 h [3]: 9 mmHg
- SHR heart rate, time after administration 4 h [3]: 336 ± 54.5 beat/min
- SHR blood pressure (SBP), time after administration 4 h [3]: 178 ± 6.61 mmHg
- Heart rate Difference before and after administration, 5 h [3]: −3 beat/min
- SBP Difference before and after administration, 5 h [3]: 5 mmHg
- SHR heart rate, time after administration 5 h [3]: 331 ± 51.0 beat/min
- SHR blood pressure (SBP), time after administration 5 h [3]: 182 ± 7.25 mmHg
- Heart rate Difference before and after administration, 6 h [3]: 3 beat/min
- SBP Difference before and after administration, 6 h [3]: 3 mmHg
- SHR heart rate, time after administration 6 h [3]: 336 ± 52.7 beat/min
- SHR blood pressure (SBP), time after administration 6 h [3]: 184 ± 12.1 mmHg
- Blood pressure (SBP, mmHg) After administration [3]: 181 ± 8.80 mmHg
- Heart rate (beat/min) After administration [3]: 336 ± 49.5 beat/min
- Heart rate Difference (beat/min) [3]: 3 beat/min
- Blood pressure Difference mmHg [3]: 6 mmHg
- Blood pressure (SBP, mmHg) Baseline [3]: 187 ± 11.9 mmHg
- Heart rate (beat/min) Baseline [3]: 333 ± 44.0 beat/min

Structure (SMILES): CCc1ccc(C(O)CO)cc1 (stereo not drawn) [Compound 4]
- SHR heart rate, time after administration 0 h [3]: 345 ± 42.2 beat/min
- Heart rate Difference before and after administration, 1 h [3]: 2 beat/min
- SBP Difference before and after administration, 1 h [3]: 3 mmHg
- SHR heart rate, time after administration 1 h [3]: 347 ± 42.6 beat/min
- SHR blood pressure (SBP), time after administration 1 h [3]: 182 ± 11.6 mmHg
- Heart rate Difference before and after administration, 2 h [3]: 4 beat/min
- SBP Difference before and after administration, 2 h [3]: 7 mmHg
- SHR heart rate, time after administration 2 h [3]: 349 ± 49.7 beat/min
- SHR blood pressure (SBP), time after administration 2 h [3]: 178 ± 10.8 mmHg
- Heart rate Difference before and after administration, 3 h [3]: 4 beat/min
- SBP Difference before and after administration, 3 h [3]: 8 mmHg
- SHR heart rate, time after administration 3 h [3]: 349 ± 48.3 beat/min
- SHR blood pressure (SBP), time after administration 3 h [3]: 177 ± 10.9 mmHg
- Heart rate Difference before and after administration, 4 h [3]: 0 beat/min
- SBP Difference before and after administration, 4 h [3]: 5 mmHg
- SHR heart rate, time after administration 4 h [3]: 345 ± 45.1 beat/min
- SHR blood pressure (SBP), time after administration 4 h [3]: 180 ± 15.80 mmHg
- Heart rate Difference before and after administration, 5 h [3]: −6 beat/min
- SBP Difference before and after administration, 5 h [3]: 1 mmHg
- SHR heart rate, time after administration 5 h [3]: 338 ± 39.7 beat/min
- SHR blood pressure (SBP), time after administration 5 h [3]: 184 ± 16.0 mmHg
- Heart rate Difference before and after administration, 6 h [3]: −4 beat/min
- SBP Difference before and after administration, 6 h [3]: −1 mmHg
- SHR heart rate, time after administration 6 h [3]: 341 ± 46.9 beat/min
- SHR blood pressure (SBP), time after administration 6 h [3]: 186 ± 17.7 mmHg
- Blood pressure (SBP, mmHg) After administration [3]: 181 ± 13.2 mmHg
- Heart rate (beat/min) After administration [3]: 346 ± 43.4 beat/min
- Heart rate Difference (beat/min) [3]: 1 beat/min
- Blood pressure Difference mmHg [3]: 3 mmHg
- Blood pressure (SBP, mmHg) Baseline [3]: 184 ± 14.7 mmHg
- Heart rate (beat/min) Baseline [3]: 345 ± 42.2 beat/min

Source: patent publication US12180146B2, “Antihypertensive polyol compound and derivative thereof” (TAO PHARMACEUTICAL (SUZHOU) CO., LTD, priority 2020, dated 2024)
